Positions of bridges follow the written chain, without caps; N, C: chain ends. Residues, ends and D or L forms follow the SMILES beside them.
Biological target: T1, IL17-RE-IL-17C (Homo sapiens, UniProt Q8NFR9+Q9P0M4)
T1 sequence (Q9P0M4 whole entry): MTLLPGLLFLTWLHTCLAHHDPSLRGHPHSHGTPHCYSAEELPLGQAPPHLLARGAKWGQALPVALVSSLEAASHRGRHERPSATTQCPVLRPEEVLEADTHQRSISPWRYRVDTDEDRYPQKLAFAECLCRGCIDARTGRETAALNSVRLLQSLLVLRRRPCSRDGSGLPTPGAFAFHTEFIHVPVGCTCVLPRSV
T1 sequence (Q8NFR9 whole entry): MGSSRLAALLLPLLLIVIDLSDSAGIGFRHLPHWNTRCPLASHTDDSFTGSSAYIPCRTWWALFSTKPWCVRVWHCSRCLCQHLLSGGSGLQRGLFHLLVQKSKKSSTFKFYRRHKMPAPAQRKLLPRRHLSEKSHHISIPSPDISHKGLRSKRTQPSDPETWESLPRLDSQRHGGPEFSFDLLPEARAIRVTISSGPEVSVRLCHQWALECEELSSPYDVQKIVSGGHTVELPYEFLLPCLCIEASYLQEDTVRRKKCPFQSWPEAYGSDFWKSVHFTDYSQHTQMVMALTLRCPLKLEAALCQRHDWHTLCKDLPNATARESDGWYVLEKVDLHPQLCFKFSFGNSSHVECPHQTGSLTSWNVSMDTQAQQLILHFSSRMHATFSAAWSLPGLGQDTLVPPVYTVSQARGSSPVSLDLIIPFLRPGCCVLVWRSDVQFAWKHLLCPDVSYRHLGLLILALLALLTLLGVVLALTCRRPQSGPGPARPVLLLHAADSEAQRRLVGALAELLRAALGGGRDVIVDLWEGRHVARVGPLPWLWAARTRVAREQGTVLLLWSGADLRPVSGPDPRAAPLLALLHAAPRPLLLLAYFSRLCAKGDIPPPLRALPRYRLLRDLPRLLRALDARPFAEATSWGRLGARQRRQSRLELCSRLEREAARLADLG
Assay: Inhibition of IL-17C/IL-17RE interaction (unknown origin) incubated for 1.5 hrs by ELISA method
Assay type: protein-complex assay

Row | Compound | IC50
1 | CC[C@H](C)[C@@H]1NC(=O)[C@H](CCCNC(=N)N)NC(=O)[C@H](Cc2ccc(O)cc2)NC(=O)[C@H](Cc2ccc(O)cc2)NC(=O)[C@H](CC(C)C)NC(=O)[C@H](Cc2c[nH]cn2)NC(=O)[C@H](Cc2ccc(O)cc2)NC(=O)CSC[C@@H](C(=O)NCC(N)=O)NC(=O)CNC(=O)[C@H](CC(C)C)NC(=O)[C@H](CC(N)=O)NC(=O)CNC(=O)[C@H](Cc2ccc(O)cc2)NC(=O)[C@H](CC(C)C)NC1=O ({CH2CO}-YHLYYRILYGNLGCG-NH2; thioether N-14) | 0.0113 µM
2 | CC(C)C[C@@H]1NC(=O)[C@H](CC(N)=O)NC(=O)CNC(=O)[C@H](Cc2ccc(O)cc2)NC(=O)[C@H](CC(C)C)NC(=O)[C@H](CC(C)C)NC(=O)[C@H](CCCNC(=N)N)NC(=O)[C@H](Cc2ccc(O)cc2)NC(=O)[C@H](Cc2ccc(O)cc2)NC(=O)[C@H](CC(C)C)NC(=O)[C@H](Cc2c[nH]cn2)NC(=O)[C@H](Cc2ccc(O)cc2)NC(=O)CSC[C@@H](C(=O)NCC(N)=O)NC(=O)CNC1=O ({CH2CO}-YHLYYRLLYGNLGCG-NH2; thioether N-14) | 0.0488 µM
3 | CC(C)C[C@@H]1NC(=O)[C@H](CO)NC(=O)CNC(=O)[C@H](Cc2ccc(O)cc2)NC(=O)[C@H](CC(C)C)NC(=O)[C@H](CO)NC(=O)[C@H](C(C)C)NC(=O)[C@H](Cc2ccc(O)cc2)NC(=O)[C@H](Cc2ccc(O)cc2)NC(=O)[C@H](CC(C)C)NC(=O)[C@H](Cc2c[nH]cn2)NC(=O)[C@H](Cc2ccc(O)cc2)NC(=O)CSC[C@@H](C(=O)NCC(N)=O)NC(=O)CNC1=O ({CH2CO}-YHLYYVSLYGSLGCG-NH2; thioether N-14) | 0.012 µM
4 | CC[C@H](C)[C@@H]1NC(=O)[C@H](CCCNC(=N)N)NC(=O)[C@H](Cc2ccc(O)cc2)NC(=O)[C@H](Cc2ccc(O)cc2)NC(=O)[C@@H]2CCCN2C(=O)[C@H](Cc2c[nH]cn2)NC(=O)[C@H](Cc2ccc(O)cc2)NC(=O)CSC[C@@H](C(=O)NCC(N)=O)NC(=O)CNC(=O)[C@H](CC(C)C)NC(=O)[C@H](CCC(=O)O)NC(=O)CNC(=O)[C@H](Cc2ccc(O)cc2)NC(=O)[C@H](CC(C)C)NC1=O ({CH2CO}-YHPYYRILYGELGCG-NH2; thioether N-14) | > 30 µM
5 | CC(C)C[C@@H]1NC(=O)[C@H](CC(N)=O)NC(=O)CNC(=O)[C@H](Cc2ccc(O)cc2)NC(=O)[C@H](CC(C)C)NC(=O)[C@H](CC(C)C)NC(=O)[C@H](CCCNC(=N)N)NC(=O)[C@H](Cc2ccc(O)cc2)NC(=O)[C@H](Cc2ccc(O)cc2)NC(=O)[C@H](CCC(N)=O)NC(=O)[C@H](Cc2c[nH]cn2)NC(=O)[C@H](Cc2ccc(O)cc2)NC(=O)CSC[C@@H](C(=O)NCC(N)=O)NC(=O)CNC1=O ({CH2CO}-YHQYYRLLYGNLGCG-NH2; thioether N-14) | 0.0264 µM
6 | CC(C)C[C@@H]1NC(=O)[C@H](CC(N)=O)NC(=O)CNC(=O)[C@H](Cc2ccc(O)cc2)NC(=O)[C@H](CC(C)C)NC(=O)[C@H](CO)NC(=O)[C@H](C(C)C)NC(=O)[C@H](Cc2ccc(O)cc2)NC(=O)[C@H](Cc2ccc(O)cc2)NC(=O)[C@H](CCC(N)=O)NC(=O)[C@H](Cc2c[nH]cn2)NC(=O)[C@H](Cc2ccc(O)cc2)NC(=O)CSC[C@@H](C(=O)NCC(N)=O)NC(=O)CNC1=O ({CH2CO}-YHQYYVSLYGNLGCG-NH2; thioether N-14) | 0.0104 µM
7 | CC[C@H](C)[C@@H]1NC(=O)[C@H](CO)NC(=O)[C@H](Cc2ccc(O)cc2)NC(=O)[C@H](Cc2ccc(O)cc2)NC(=O)[C@H]([C@@H](C)CC)NC(=O)[C@H](Cc2c[nH]cn2)NC(=O)[C@H](CC(N)=O)NC(=O)[C@H](Cc2ccccc2)NC(=O)[C@H](Cc2ccccc2)NC(=O)[C@H](CCC(N)=O)NC(=O)[C@H](CC(=O)O)NC(=O)[C@H]([C@@H](C)CC)NC(=O)[C@H](Cc2ccc(O)cc2)NC(=O)CSC[C@@H](C(=O)NCC(N)=O)NC1=O ({CH2CO}-YIDQFFNHIYYSICG-NH2; thioether N-14) | 14.7 µM
8 | CC[C@H](C)[C@@H]1NC(=O)[C@H](CO)NC(=O)[C@H](Cc2ccc(O)cc2)NC(=O)[C@H]([C@@H](C)CC)NC(=O)[C@H]([C@@H](C)O)NC(=O)[C@H](CC(C)C)NC(=O)[C@H](CC(=O)O)NC(=O)[C@H]([C@@H](C)CC)NC(=O)[C@H](C(C)C)NC(=O)[C@H](Cc2ccc(O)cc2)NC(=O)[C@H](CC(=O)O)NC(=O)[C@H](CCCCN)NC(=O)[C@H](Cc2ccc(O)cc2)NC(=O)CSC[C@@H](C(=O)NCC(N)=O)NC1=O ({CH2CO}-YKDYVIDLTIYSICG-NH2; thioether N-14) | > 30 µM
9 | CC(C)C[C@@H]1NC(=O)[C@H](CC(C)C)NC(=O)[C@H](CO)NC(=O)[C@H](CCC(=O)O)NC(=O)[C@H](CC(C)C)NC(=O)[C@H](Cc2ccc(O)cc2)NC(=O)CSC[C@@H](C(=O)NCC(N)=O)NC(=O)[C@H](Cc2ccc(O)cc2)NC(=O)[C@H](Cc2ccc(O)cc2)NC(=O)[C@H](CC(N)=O)NC(=O)[C@H](CC(N)=O)NC(=O)[C@H](CO)NC(=O)CNC1=O ({CH2CO}-YLESLLGSNNYYCG-NH2; thioether N-13) | > 30 µM
10 | CC[C@H](C)[C@@H]1NC(=O)[C@H](CCCNC(=N)N)NC(=O)[C@H](Cc2ccc(O)cc2)NC(=O)[C@H](Cc2ccc(O)cc2)NC(=O)[C@H](Cc2c[nH]cn2)NC(=O)[C@H](CCC(N)=O)NC(=O)[C@H](Cc2ccc(O)cc2)NC(=O)CSC[C@@H](C(=O)NCC(N)=O)NC(=O)CNC(=O)[C@H](CC(C)C)NC(=O)[C@H](CCC(=O)O)NC(=O)CNC(=O)[C@H](Cc2ccc(O)cc2)NC(=O)[C@H](CC(C)C)NC1=O ({CH2CO}-YQHYYRILYGELGCG-NH2; thioether N-14) | > 30 µM

The next molecules have a lower IC50 than those just listed; values first:

Row | IC50 | Compound
11 | 0.009 µM | CC(C)C[C@@H]1NC(=O)[C@H](CO)NC(=O)[C@H](Cc2ccc(O)cc2)NC(=O)[C@H](Cc2ccc(O)cc2)NC(=O)[C@H](Cc2ccc(O)cc2)NC(=O)[C@H](C(C)C)NC(=O)[C@H](Cc2c[nH]cn2)NC(=O)[C@H](Cc2ccc(O)cc2)NC(=O)CSC[C@@H](C(=O)NCC(N)=O)NC(=O)CNC(=O)[C@H](CC(C)C)NC(=O)[C@@H]2CCCN2C(=O)CNC(=O)[C@H](Cc2ccc(O)cc2)NC1=O ({CH2CO}-YHVYYYSLYGPLGCG-NH2; thioether N-14)
12 | 0.0081 µM | CC(C)C[C@@H]1NC(=O)[C@H](CO)NC(=O)CNC(=O)[C@H](Cc2ccc(O)cc2)NC(=O)[C@H](CC(C)C)NC(=O)[C@H](CO)NC(=O)[C@H](C(C)C)NC(=O)[C@H](Cc2ccc(O)cc2)NC(=O)[C@H](Cc2ccc(O)cc2)NC(=O)[C@H](CCC(N)=O)NC(=O)[C@H](Cc2c[nH]cn2)NC(=O)[C@H](Cc2ccc(O)cc2)NC(=O)CSC[C@@H](C(=O)NCC(N)=O)NC(=O)CNC1=O ({CH2CO}-YHQYYVSLYGSLGCG-NH2; thioether N-14)
13 | 0.0079 µM | CC(C)C[C@@H]1NC(=O)[C@H](CO)NC(=O)CNC(=O)[C@H](Cc2ccc(O)cc2)NC(=O)[C@H](CC(C)C)NC(=O)[C@H](CO)NC(=O)[C@H](CCC(N)=O)NC(=O)[C@H](Cc2ccc(O)cc2)NC(=O)[C@H](Cc2ccc(O)cc2)NC(=O)[C@H](C(C)C)NC(=O)[C@H](Cc2c[nH]cn2)NC(=O)[C@H](Cc2ccc(O)cc2)NC(=O)CSC[C@@H](C(=O)NCC(N)=O)NC(=O)CNC1=O ({CH2CO}-YHVYYQSLYGSLGCG-NH2; thioether N-14)
14 | 0.0064 µM | CC(C)C[C@@H]1NC(=O)[C@H](CC(N)=O)NC(=O)CNC(=O)[C@H](Cc2ccc(O)cc2)NC(=O)[C@H](CC(C)C)NC(=O)[C@H](CO)NC(=O)[C@H](C(C)C)NC(=O)[C@H](Cc2ccc(O)cc2)NC(=O)[C@H](Cc2ccc(O)cc2)NC(=O)[C@H](CC(C)C)NC(=O)[C@H](Cc2c[nH]cn2)NC(=O)[C@H](Cc2ccc(O)cc2)NC(=O)CSC[C@@H](C(=O)NCC(N)=O)NC(=O)CNC1=O ({CH2CO}-YHLYYVSLYGNLGCG-NH2; thioether N-14)
15 | 0.0055 µM | CC(C)C[C@@H]1NC(=O)[C@H](CC(N)=O)NC(=O)CNC(=O)[C@H](Cc2ccc(O)cc2)NC(=O)[C@H](CC(C)C)NC(=O)[C@H](CO)NC(=O)[C@H](Cc2ccc(O)cc2)NC(=O)[C@H](Cc2ccc(O)cc2)NC(=O)[C@H](Cc2ccc(O)cc2)NC(=O)[C@H](CC(C)C)NC(=O)[C@H](Cc2c[nH]cn2)NC(=O)[C@H](Cc2ccc(O)cc2)NC(=O)CSC[C@@H](C(=O)NCC(N)=O)NC(=O)CNC1=O ({CH2CO}-YHLYYYSLYGNLGCG-NH2; thioether N-14)
16 | 0.0054 µM | CC(C)C[C@@H]1NC(=O)[C@H](CO)NC(=O)CNC(=O)[C@H](Cc2ccc(O)cc2)NC(=O)[C@H](CC(C)C)NC(=O)[C@H](CO)NC(=O)[C@H](CCCNC(=N)N)NC(=O)[C@H](Cc2ccc(O)cc2)NC(=O)[C@H](Cc2ccc(O)cc2)NC(=O)[C@H](C(C)C)NC(=O)[C@H](Cc2cnc[nH]2)NC(=O)[C@H](Cc2ccc(O)cc2)NC(=O)CSC[C@@H](C(=O)NCC(N)=O)NC(=O)CNC1=O ({CH2CO}-YHVYYRSLYGSLGCG-NH2; thioether N-14)
17 | 0.0033 µM | CC(C)C[C@@H]1NC(=O)[C@H](CO)NC(=O)CNC(=O)[C@H](Cc2ccc(O)cc2)NC(=O)[C@H](CC(C)C)NC(=O)[C@H](CO)NC(=O)[C@H](Cc2ccc(O)cc2)NC(=O)[C@H](Cc2ccc(O)cc2)NC(=O)[C@H](Cc2ccc(O)cc2)NC(=O)[C@H](C(C)C)NC(=O)[C@H](Cc2c[nH]cn2)NC(=O)[C@H](Cc2ccc(O)cc2)NC(=O)CSC[C@@H](C(=O)NCC(N)=O)NC(=O)CNC1=O ({CH2CO}-YHVYYYSLYGSLGCG-NH2; thioether N-14)

Source: ChEMBL document CHEMBL5360618, “PepScaf: Harnessing Machine Learning with In Vitro Selection toward De Novo Macrocyclic Peptides against IL-17C/IL-17RE Interaction” (J Med Chem, 2023)
